{"source": "patent US20110251289A1", "about": "“NEW COMPOUNDS FOR THE TREATMENT OF CANCER” (CSIR, priority 2008, published 2011)", "type_in_all_cases": "cell-based", "key": {"[1]": {"test_system": "Staphylococcus intermedius", "experiment": "growth inhibition of bacterial cells", "settings": "Staphylococcus intermedius (3 strains)", "excerpt": "(§1) This selective inhibition of the growth of eukaryotes versus prokaryotes is a useful characteristic of the compound."}, "Actinomyces pyogenes": {"test_system": "Actinomyces pyogenes", "experiment": "growth inhibition of bacterial cells", "excerpt": "as §1"}, "[2]": {"test_system": "Bordetella bronchiseptica", "experiment": "growth inhibition of bacterial cells", "excerpt": "as §1"}, "[3]": {"test_system": "Sphingobacterium spritivorum", "experiment": "growth inhibition of bacterial cells", "excerpt": "as §1"}, "Pasteurella haemolytica": {"test_system": "Pasteurella haemolytica", "experiment": "growth inhibition of bacterial cells", "excerpt": "as §1"}, "[4]": {"test_system": "MCF cells (breast cancer cells)", "experiment": "MTT cytotoxicity assay, MCF cells", "settings": "200 μM, 48 h", "procedure": "(§2) In addition, when HeLa and MCF cells (breast cancer cells) were exposed to 200 μM pavetamine for 48 h, 30% cell death occurred for HeLa cells and 25% for the MCF cells. The MTT (3-(4,5-dimethyl-2-thiazolyl)-2,5-diphenyl-2H-tetrazolium bromide) assay (Sigma, St Louis, USA) was used to measure the cytotoxicity of pavettamine in these cell lines."}, "[5]": {"test_system": "Selenastrum capricornumtum", "experiment": "algal growth inhibition test", "settings": "1 mM to 0.063 mM, 72 hrs exposure, optical density relative to control", "procedure": "The algal (Selenastrum capricornumtum) growth inhibition test involves exposing the unicellular algae to the toxicant for 72 hrs, under defined conditions: at a temperature of 24° C. and in a test facility fitted with a cool white fluorescent light with a light intensity of ±4000 lux. The test facility is free of vapour, odours and dust which may be toxic to the algae.\nGrowth inhibition is measured as a reduction in growth rate relative to the control and is determined in terms of optical density. Definitive tests (testing serial dilutions) are carried out. The percentage growth inhibition in each test is usually reported as Effect or the 72 hr EC20 or EC50."}, "Debaryomyces hansenii": {"test_system": "Debaryomyces hansenii", "experiment": "growth inhibition of fungal and yeast cells", "excerpt": "as §1"}, "Aspergillus clavatus": {"test_system": "Aspergillus clavatus", "experiment": "growth inhibition of fungal and yeast cells", "excerpt": "as §1"}, "Rhodotorula mucilaginosa": {"test_system": "Rhodotorula mucilaginosa", "experiment": "growth inhibition of fungal and yeast cells", "excerpt": "as §1"}, "Penicillium expansum": {"test_system": "Penicillium expansum", "experiment": "growth inhibition of fungal and yeast cells", "excerpt": "as §1"}, "human lymphocytes": {"test_system": "human lymphocytes", "experiment": "toxicity to human lymphocytes (IC50)", "settings": "Lymphocyte"}, "HeLa cells": {"test_system": "HeLa cells", "experiment": "MTT cytotoxicity assay, HeLa cells", "settings": "200 μM, 48 h", "procedure": "as §2"}, "HeLa cancer cells": {"test_system": "HeLa cancer cells", "experiment": "activity against HeLa cancer cells (toxicity, IC50)"}}}
{"smiles": "NC[C@@H](O)C[C@@H](O)CNC[C@H](O)C[C@H](O)CN", "note": "[pavettamine, (2S,4R,8R,10S)-1,11-diamino-6-aza-undecane-2,4,8,10-tetraol]", "values": [{"measurement": "inhibitory activity towards growth of bacterial cells", "setting": "[1]", "result": "no inhibitory activity"}, {"measurement": "inhibitory activity towards growth of bacterial cells", "setting": "Actinomyces pyogenes", "result": "no inhibitory activity"}, {"measurement": "inhibitory activity towards growth of bacterial cells", "setting": "[2]", "result": "no inhibitory activity"}, {"measurement": "inhibitory activity towards growth of bacterial cells", "setting": "[3]", "result": "no inhibitory activity"}, {"measurement": "inhibitory activity towards growth of bacterial cells", "setting": "Pasteurella haemolytica", "result": "no inhibitory activity"}, {"measurement": "cell death, MCF cells", "setting": "[4]", "result": 25, "unit": "%"}, {"measurement": "growth inhibition of algae", "setting": "[5]", "result": "≥ 98", "unit": "%"}, {"measurement": "inhibitory activity towards growth of fungal and yeast cells", "setting": "Debaryomyces hansenii", "result": "inhibitory activity"}, {"measurement": "inhibitory activity towards growth of fungal and yeast cells", "setting": "Aspergillus clavatus", "result": "inhibitory activity"}, {"measurement": "inhibitory activity towards growth of fungal and yeast cells", "setting": "Rhodotorula mucilaginosa", "result": "inhibitory activity"}, {"measurement": "inhibitory activity towards growth of fungal and yeast cells", "setting": "Penicillium expansum", "result": "inhibitory activity"}, {"measurement": "IC50", "setting": "human lymphocytes", "result": 2, "unit": "µg/mL"}, {"measurement": "cell death, HeLa cells", "setting": "HeLa cells", "result": 30, "unit": "%"}, {"measurement": "times more toxic to HeLa cancer cells than to human lymphocytes", "setting": "HeLa cancer cells; HeLa cancer cells versus human lymphocytes", "result": 10, "unit": "×"}, {"measurement": "IC50", "setting": "HeLa cancer cells; Homo sapiens, HeLa", "result": 0.2, "unit": "µg/mL"}]}
